# How the values were obtained:
# [1] = tested on: Tau phosphorylation [pS396] in human neuroblastoma SHSY5Y cells; assay: Inhibition of tau phosphorylation in SHSY5Y cells, Tau [pS396] sandwich ELISA; format: cell-based; settings: at 200 μM, 24 h
# Procedure: 1.1.2. Inhibition of Tau Phosphorylation Human neuroblastoma SHSY5Y cells were seeded in 96-well plates (25000 cells/well) in Dulbecco's modified Eagle's medium (DMEM) supplemented with 10% fetal calf serum. One day later, cells were treated with samples for 24 h at 37° C. After treatment, cultures were washed with phosphate-buffered saline and lysed for 30 min at 4° C. in 120 μl of extraction buffer (10 mM Tris-HCl, pH 7.4, 100 mM NaCl, 1 mM EDTA, 2 mM Na3VO4, 1% Triton X-100, 10% glycerol, 0.1% SDS, 0.5% Sodium deo.ycholate, 1 mM PMSF and a protease inhibitor cocktail.
# The quantitative definition of phosphorylated human Tau was made taking 40 μl of the cell lysate and using a phosphorylation-specific antibody against Tau [pS396] in a sandwich ELISA. Tau phosphorylation was estimated by measuring of absorbance at 450 nm in a microtiter plate reader.
# [2] = target: Recombinant human glycogen synthase kinase 3β (Homo sapiens, UniProt P49841); assay: GSK3β inhibition, radiometric kinase assay with GS-2 peptide and 33P-ATP
# Sequence of Recombinant human glycogen synthase kinase 3β (P49841 whole entry): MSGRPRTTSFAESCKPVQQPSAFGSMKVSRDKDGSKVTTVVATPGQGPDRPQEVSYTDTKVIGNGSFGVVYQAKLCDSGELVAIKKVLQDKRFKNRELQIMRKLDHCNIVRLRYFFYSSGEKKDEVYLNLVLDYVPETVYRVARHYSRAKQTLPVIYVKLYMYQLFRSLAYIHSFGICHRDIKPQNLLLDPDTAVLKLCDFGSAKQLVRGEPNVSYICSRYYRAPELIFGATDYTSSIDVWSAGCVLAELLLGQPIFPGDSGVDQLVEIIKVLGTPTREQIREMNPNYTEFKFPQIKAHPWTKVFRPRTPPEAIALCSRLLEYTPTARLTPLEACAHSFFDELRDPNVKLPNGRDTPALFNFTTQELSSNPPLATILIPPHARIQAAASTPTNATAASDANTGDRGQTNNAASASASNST
# Procedure: Recombinant human glycogen synthase kinase 3B was assayed in MOPS 8 mM pH7.3, EDTA 0.2 mM, MgCl. 10 mM and sodium orthovanadate 0.25 mM in the presence of 62.5 μM of Phospho-Glycogen Synthase Peptide-2 (GS-2), 0.5 μCi γ-^33P-ATP and unlabelled ATP at a final concentration of 12.5 μM. The final assay volume was 20 μl. After incubation for 30 minutes at 30° C., 15 μl aliquots were spotted onto P81 phosphocellulose papers. Filters were washed four times for at least 10 minutes each and counted with 1.5 ml of scintillation cocktail in a scintillation counter.
IC50 [2],"mechanism of inhibition of GSK3β ([2]; kinetic experiments varying both ATP and inhibitor concentrations, preliminary)",SMILES,"inhibition of tau phosphorylation, cellular assay [1]"
4.5 µM,non As-competitive inhibitor,CC1=C(O)[C@@H](C/C(C)=C/CC[C@H](C)/C=C/C=C(\C)CCCc2ccoc2)OC1=O [Palinurin],significant inhibition
,,C/C(=C\C=C\C(C)CC/C=C(\C)CC1OC(=O)C(=O)C1=O)CCCc1ccoc1 (stereo not shown) [Tricantin],significant inhibition

# Reference: US20070088080A1, “Gsk-3 inhibitors isolated from marine organisms” (NEUROPHARMA, S.A., priority 2003, published 2007)
